Source: US11363979B2, “Addressable vertical nanowire probe arrays and fabrication methods” (priority 2016, dated 2022)
Where two headings read alike, the source gives them in different places.

Experiments:
[1] = test system: mouse hippocampal neurons; experiment: Pharmacological stimulation and inhibition of neurons recorded on the vertical Si nanowire probe array; format: cell-based
[2] = test system: human iPSC-derived neurons; format: cell-based

Row | Compound | cellular activity / neuronal spiking [1] | firing (rate) of spontaneous action potentials [1] | activity relative to the baseline recording ([1]; extracellular configuration, injection, nanowire recording) | firing (rate) of spontaneous action potentials [2] | activity relative to the baseline recording [1] | cell activity (frequency and amplitude) compared to the baseline spontaneous activity measured on the same channel ([1]; intracellular configuration, injection, nanowire recording)
1 | [Cl-].[K+] [KCl] | increased | increased firing rate | increased activity relative to the baseline recording | increased firing rate |  | 
2 | NC1=N[C@H](O)[C@H]2[C@H]3O[C@]4(O)O[C@@H]([C@@H](O)[C@@]2(N1)[C@@H]4O)[C@]3(O)CO [TTX, tetrodotoxin] | neuronal spiking vanished |  |  |  | eliminated | 
3 | glutamate | increased |  |  |  |  | increase of the cell activity with respect to frequency and amplitude
